Assay: Metabolic stability in mouse liver microsomes (t1/2)
Format: in vitro ADME
Details: NADPH, 37 °C
Procedure: Microsomal incubations were carried out in 96-well plates in 3 aliquots of 30 μL each (one for each time point). Liver microsomal incubation medium comprised phosphate buffer (100 mM, pH 7.4), MgCl2 (3 mM), NADPH (3 mM), glucose-6-phosphate (5.3 mM), and glucose-6-phosphate dehydrogenase (0.67 units/mL) with 0.42 mg of liver microsomal protein per mL. In the control reactions, the NADPH-cofactor system was substituted with phosphate buffer. Test compounds (2 μM, final solvent concentration 1.6%) were incubated with microsomes at 37 °C, shaking at 100 rpm. Three time points over 7 min were analyzed. The reactions were stopped by adding 5 volumes of methanol with internal standard to incubation aliquots followed by protein sedimentation by centrifuging at 6,000 rpm for 20 min. Each reaction was performed in duplicate. Supernatants were analyzed using the HPLC system coupled with a tandem mass spectrometer and high-resolution mass spectrometer.
The incubation was stopped after defined time points by precipitation of aliquots of enzymes with 2 volumes of cold internal standard solution (15 nM diphenhydramine in 10% methanol/acetonitrile). […] The remaining test compound at the different time points was analyzed by HPLC-MS/MS (Vanquish Flex coupled to a TSQ Altis Plus, Thermo Fisher, Dreieich, Germany) and used to determine half-life (t 1/2).

Structure (SMILES)	Mouse liver microsomes t1/2
O=C(N[C@H](Cc1ccccc1)C(=O)Nc1ccccc1N1CCS(=O)(=O)CC1)c1ccccc1F [AAP-SO2]	1.8 min
O=C(N[C@H](Cc1ccccc1)C(=O)Nc1ccccc1N1CCOCC1)c1cccs1 [MMV688845]	0.9 min
